Assay type in all cases: in vivo
The test system of data set [1] is CYPDI = Cyperus difformis (small-flower flatsedge). As to the kind of experiment: Greenhouse in-water herbicidal activity (large pots). To be noted: Cyperus difformis, 744 h, read-out: Percent (%) Visual Injury Ratings - 31 DAA, CYPDI. On the procedure: (§1) Weed seeds or nutlets of the desired test plant species were planted in puddled soil (mud) prepared by mixing shredded topsoil and deionized (DI) water in a 1:1 ratio in a standard cement mixer. […] Osmocote® (17:6:10 N:P:K; 0.5 teaspoon) was added to the bottom of a container. The container is a high-density polyethylene (HDPE) round container (4.163 L (1.1 gallon), 15 cm high×20.55 cm diameter; for treatment purposes, the surface area is calculated as 331 cm^2 with 1 hectare equivalent to 10^8 cm^2). The mud mixture (2,750 mL) was added to the container filling it half full. Stakes were placed horizontally in each container to create separate areas for which to plant each different plant species. Water was added on a regular basis to maintain the paddy flood, and supplemental lighting was provided with overhead metal halide 1000-Watt lamps as necessary.
(§2) Once the plants had reached the proper size (the growth stage of the various species ranged from 2 to 4 leaves), the containers were flooded with city water to a depth of 3 cm submerging the plants 80-100%. The outside of each container was measured and marked at a 3-cm line with a black permanent marker to eliminate water level variability during the trial period. Water was added daily to maintain this water depth. Triclopyr triethylammonium (as Garlon® 3 A, 360 g ae/L); triclopyr butoxyethyl ester (as Garlon® 4, 480 g ae/L); fluroxypyr methylheptyl ester (meptyl or MHE, as Starane® Ultra, 333 g ae/L); fluroxypyr acid (850 grams acid equivalent per kilogram (g ae/kg)); 2,4-dichlorophenoxyacetic acid dimethylammonium (2,4-D DMA, as Weedar® 64 EC, 456 g ae/L); 2,4-dichlorophenoxyacetic acid 2-ethylhexyl ester (2,4-D 2-EHE, as Agri Star®, 456 g ae/L); clopyralid olamine (as Stinger®, 360 g ae/L); and penoxsulam (as Grasp® SC, 240 g ai/L) were used. Each herbicide treatment for each pot was mixed in water (80 mL) and applied directly into the paddy water at rates adjusted to the surface area. The dry formulations were pre-weighed based on the rate of the active ingredient to be applied on a per unit area basis, placed in 30 mL vials, and capped. Granules were spread onto the top of the water in each pot and dispersed throughout the water. Treatments were replicated 3 times.
(§3) The treated plants and control plants were placed in a greenhouse as described above and water was added as needed to maintain a flood depth of 3 cm. […]

The test system of data set [2] is ECHCG = Echinochloa crus-galli (barnyardgrass). The description is as above. The note with it: 744 h, read-out: Percent (%) Visual Injury Ratings - 31 DAA, ECHCG. On the procedure: as §1, §2, §3
The test system of data set [3] is MOOVA = Monochoria vaginalis (monochoria). Described as above. To be noted: Pontederia vaginalis, 744 h, read-out: Percent (%) Visual Injury Ratings - 31 DAA, MOOVA. Here is the method: as §1, §2, §3
Data set [4] has as its system barnyardgrass (Echinochloa crus-galli), small-flower flatsedge (Cyperus difformis), Japanese bulrush (Schoenoplectus juncoides) and monochoria (Monochoria …). Put plainly: In-water application, weed efficacy (summary statement). To be noted: application rate of about 35 to about 280 g ae/ha.
The next data set deals with rice. Put plainly: In-water application, crop safety (summary statement).
The test system of data set [5] is ORYSP = Oryza sativa (transplanted paddy rice). Put plainly: Greenhouse in-water application (large pots), crop injury. On the procedure: as §1, §2, §3
The test system of data set [6] is CYDPI = Cyperus difformis (small-flower flatsedge). Put plainly: Greenhouse in-water herbicidal activity (small pots). The note with it: 35 g ae/ha (as headed) in-water. An excerpt:
(§4) Weed seeds of the desired test plant species were planted in puddled soil (mud) prepared by mixing a non-sterilized mineral soil (approximately 50 percent silt, 26 percent clay, and 24 percent sand, with a pH of about 7.6 and an organic matter content of about 2.9 percent) and water at a 1:1 volumetric ratio. The prepared mud was dispensed in 365 milliliter (mL) aliquots into 16-ounce (oz.) non-perforated plastic pots with a surface area of 86.59 square centimeters (cm^2) leaving a headspace of 3 centimeters (cm) in each pot. Mud was allowed to dry overnight prior to planting or transplanting. Rice seeds were planted in Sun Gro® MetroMix® 360 planting mixture, which typically has a pH of 6.0 to 6.8 and an organic matter content of about 30 percent, in plastic plug trays. Seedlings at the second or third leaf stage of growth were transplanted into 840 mL of mud contained in 32-oz. non-perforated plastic pots with a surface area of 86.59 cm^2 four days prior to herbicide application. The paddy was created by filling the headspace of the pots with 2.5 to 3 cm of water. When required to ensure good germination and healthy plants, a fungicide treatment and/or other chemical or physical treatment was applied. The plants were grown for 4-22 days (d) in a greenhouse with an approximate 14-hour (h) photoperiod which was maintained at about 29° C. during the day and 26° C. during the night. Nutrients were added as Osmocote® (19:6:12, Nitrogen:Phosphorus:Potassium (N:P:K)+minor nutrients) at 2 g per 16 oz. pot and 4 g per 32 oz. pot. Water was added on a regular basis to maintain the paddy flood, and supplemental lighting was provided with overhead metal halide 1000-Watt lamps as necessary. The plants were used for testing when they reached the second or third true leaf stage.
(§5) Triclopyr triethylammonium (as Grandstand® R, 359.5 grams acid equivalent per liter (g ae/L)); fluroxypyr methylheptyl ester (meptyl or MHE, as Starane™, 179.8 g ae/L); 2,4-dichlorophenoxyacetic acid dimethylammonium (2,4-D DMA, as Weedar® 64, 455.4 g ae/L); and penoxsulam (as Grasp® SC, 239.7 grams active ingredient per liter (g ai/L) were used. Measured amounts of formulated compounds were placed in individual 120 mL glass vials and were dissolved in 40 mL of an aqueous mixture containing 1.25% volume per volume (v/v) Agri-Dex® crop oil concentrate. Generally, multiple concentrations were tested utilizing the same stock solution. Applications were made by injecting an appropriate amount of the application solution into the aqueous layer of the paddy. Control plants were treated in the same manner with the solvent blank.
(§6) The treated plants and control plants were placed in a greenhouse as described above and water was added as needed to maintain a paddy flood. After approximately 3 weeks the condition of the test plants, compared with that of the untreated plants, was determined visually and scored on a scale of 0 to 100 percent where 0 corresponds to no injury or growth reduction and 100 corresponds to complete kill.

Data set [7] deals with ECHCG = Echinochloa crus-galli (barnyardgrass). The description is as above. To be noted: 35 g ae/ha (as headed) in-water.
Description: as §4, §5, §6

For data set [8], the system named is MOOVA = Monochoria vaginalis (monochoria). The description is as above. To be noted: 35 g ae/ha (as headed) in-water.
Description: as §4, §5, §6

Data set [9] concerns SCPJU = Schoenoplectus juncoides (Japanese bulrush). Described as above. To be noted: 35 g ae/ha (as headed) in-water.
Description: as §4, §5, §6

The mark [10] stands for this setting: 280 g ae/ha in-water, greenhouse large pots, 31 DAA.
The mark [11] stands for this setting: 560 g ae/ha in-water, greenhouse large pots, 31 DAA.
The mark [12] stands for this setting: 1120 g ae/ha in-water, greenhouse large pots, 31 DAA.
Where [13] appears, read: application rates of less than or equal to 280 g ae/ha.
The mark [14] stands for this setting: 35 g ai/ha in-water, greenhouse large pots, 31 DAA.

Where two headings read alike, the source gives them in different places.

In the case of `CCCCC(CC)COC(=O)COc1ccc(Cl)cc1Cl` (stereo not shown) [2,4-D 2-ethylhexyl ester (Agri Star ®)], the pest or weed control at 280 g/ha was determined as 100% in data set [1] (setting [10]), 35% in data set [2] (setting [10]) and 100% in data set [3] (setting [10]). Also, the pest or weed control at 560 g/ha came out at 100% in [1] (setting [11]), 65% in data set [2] (setting [11]) and 100% in data set [3] (setting [11]). The results for the pest or weed control at 1120 g/ha in data set [1] (setting [12]), in [2] (setting [12]) and in data set [3] (setting [12]) were 100%, 87% and 100%, respectively.
On to `O=C(O)COc1ccc(Cl)cc1Cl` [2,4-D, (2,4-dichlorophenoxy)acetic acid], for which the “efficacy on several commercially relevant weeds” value (shortened to “efficacy”) in data set [4] is recorded as “highly efficacious”. The “crop safety exhibited by rice” value in the data set with rice (setting [13]) is on record as “little to no crop injury”.
As for `O=C(O)c1nc(Cl)ccc1Cl` [Clopyralid olamine (Stinger ®), 2-hydroxyethanaminium 3,6-dichloro-2-pyridinecarboxylate], the pest or weed control at 280 g/ha came to 7% in data set [1], 17% in data set [2] and 10% in data set [3]. Moreover, the pest or weed control at 560 g/ha in [1] was 53%; in data set [2] it was 4%; in [3] it was 18%. For the same molecule, the pest or weed control at 1120 g/ha in [1] was 59%; in data set [2] it was 5%; in data set [3], 23%. Further, the “Percent (%) Visual Injury Ratings - 31 DAA, ORYSP” value in data set [5] (280 g ae/ha in-water), in [5] (560 g ae/ha in-water) and in [5] (1120 g ae/ha in-water) was 0% throughout.
`Nc1c(Cl)c(F)nc(OCC(=O)O)c1Cl` [Fluroxypyr acid, 2-[(4-amino-3,5-dichloro-6-fluoro-2-pyridinyl)oxy]-acetic acid]: the pest or weed control at 280 g/ha in data set [1] (setting [10]) was 100%; in data set [2] (setting [10]), 27%; in data set [3] (setting [10]), 98%. For the same molecule, the pest or weed control at 1120 g/ha was 100% in data set [1] (setting [12]), 45% in [2] (setting [12]) and 100% in [3] (setting [12]). The pest or weed control at 560 g/ha in data set [2] (setting [11]) was found to be 28%. Also, in [4], the “efficacy” value is “highly efficacious”. Besides, the “crop safety exhibited by rice” value with rice (in vivo) is “little to no crop injury”.
`COc1cnc(OC)n2nc(NS(=O)(=O)c3c(OCC(F)F)cccc3C(F)(F)F)nc12` [Penoxsulam (Grasp ® SC), penoxsulam]: the “Percent (%) Visual Injury Ratings - 20 DAA, CYDPI” value in [6] was 100%. The “Percent (%) Visual Injury Ratings - 20 DAA, ECHCG” value in data set [7] amounted to 99%. Further, the “Percent (%) Visual Injury Ratings - 20 DAA, MOOVA” value in data set [8] came to 99%. Also, in data set [9], the “Percent (%) Visual Injury Ratings - 20 DAA, SCPJU” value is 100%. For the same molecule, the values for the pest or weed control at 35 g/ha in data set [1] (setting [14]), in [2] (setting [14]) and in data set [3] (setting [14]) were 99%, 100% and 100%, respectively.
As to `CCCCOCCOC(=O)COc1nc(Cl)c(Cl)cc1Cl` [Triclopyr butoxyethyl ester (Garlon ® 4), 2-butoxyethyl 2[(3,5,6-trichloro-2-pyridinyl)oxy]acetate], the pest or weed control at 280 g/ha in [1] (setting [10]) is 100%; in data set [2] (setting [10]), 60%; in [3] (setting [10]) it was 100%. In addition, the figures for the pest or weed control at 560 g/ha in [1] (setting [11]), in data set [2] (setting [11]) and in data set [3] (setting [11]) were 100%, 78% and 100%, respectively. The results for the pest or weed control at 1120 g/ha in [1] (setting [12]), in data set [2] (setting [12]) and in data set [3] (setting [12]) were 100%, 95% and 100%, respectively. The “Percent (%) Visual Injury Ratings - 31 DAA, ORYSP” value in data set [5] (280 g ae/ha in-water) came to 3%; in data set [5] (560 g ae/ha in-water), 22%; in data set [5] (1120 g ae/ha in-water), 72%.
In the case of `O=C(O)c1nc(Cl)ccc1Cl` [clopyralid, 3,6-dichloro-2-pyridinecarboxylic acid], in data set [4], the “efficacy” value is listed as “highly efficacious”. The “crop safety exhibited by rice” value in the data set on rice (setting [13]) is “little to no crop injury”.
Take `O=C(O)COc1nc(Cl)c(Cl)cc1Cl` [triclopyr, 2-[(3,5,6-trichloro-2-pyridinyl)oxy]acetic acid]: the “efficacy” value in data set [4] is “highly efficacious”. For the same molecule, the “crop safety exhibited by rice” value with rice (setting [13]) was “little to no crop injury”.

The values above are taken from patent US20170055529A1, “BROAD SPECTRUM WEED CONTROL IN FLOODED RICE BY IN-WATER APPLICATION OF AUXIN HERBICIDES” (priority 2015, published 2017).
